According to US20230130103A1, “TARGETED PHARMACOLOGICAL THERAPEUTICS IN UVEAL MELANOMA” (Washington University, priority 2017, published 2023):

Legend:
[1] = test system: 92.1 cells; assay: Melanocytic re-differentiation (morphology, pigmentation, immunostaining); format: cell-based, Human; conditions: 7 d GSK503 and 3 d FR
Method: FIG. 5A Morphological changes elicited by FR. UM cell lines were treated 3 d with FR and imaged by phase contrast microscopy. FR caused UM cells driven by constitutively active Gαq (92.1 and Mel202) to lose their characteristic spindle shaped and assume a stellate shape with multiple projections. FR had no effect on BRAF-driven UM cells (OCM-1A). FIG. 5B Melanocytic differentiation of FR-treated UM cells indicated by pigmentation. UM cell lines were treated 3 d with FR. Cells were pelleted and examined macroscopically. […] Scale bar=50 μm.
(§1) Gαq-mutant 92.1 UM cells were treated with FR or vehicle, and RNA was collected 1 and 3 d after treatment for RNA-Seq analysis. FIG. 7A Unsupervised principal component analysis identified FR treatment and time in culture as the two main separable factors contributing to changes in gene expression. […] FIG. 7D FR-repressed genes identified as targets of the polycomb repressive complex 2 by Geneset enrichment analysis. FIG. 7E The Ezh1/2 inhibitor GSK503 blocks the morphological differentiation elicited by FR. 92.1 UM cells were treated 7 d with GSK503 and 3 d with FR and then imaged by phase contrast microscopy. […] 92.1 cells were treated 7 d with GSK503 and 3 d with FR and pelleted. FIG. 7G PRC2 inhibition by GSK503.
Cell fixation was carried out by adding an equal volume of 2×fixative (PBS with 4% paraformaldehyde and 0.4% glutaraldehyde) to UM cells in RPMI growth medium. After 15 min at 37° C., cells were permeabilized with 0.1% Triton X-100 in PBS for 5 min, washed with PBS, and blocked with 2% fish gelatin (Sigma-Aldrich) in PBS. Primary and secondary antibodies were diluted in 2% fish gelatin in PBS. Primary antibodies included mouse monoclonal anti-pre-melanosomal protein (One World Lab, San Diego, Calif.), rabbit polyclonal anti-tyrosinase (One World Lab), rabbit polyclonal anti-dopachrome tautomerase (One World Lab), rabbit polyclonal anti-S100 (DakoCytomation, Denmark), and mouse monoclonal anti-BrdU (Life Technologies). Secondary antibodies were Alexa-fluor conjugates (Life Technologies), and the mounting agent was ProLong Gold (Life Technologies). Cell morphology was assessed by phase contrast imaging with an inverted microscope (Olympus IX72) using a 10×objective.

[2] = test system: 92.1 cells; assay: Immunoblot of histone H3 lysine 27 trimethylation (PRC2 inhibition); format: cell-based, Human; conditions: 7 d GSK503, FIG. 7G
Method: as §1
For standard immunoblots, cells were lysed and cleared in radioimmunoprecipitation assay buffer (150 mM sodium chloride, 1% Triton-X100, 0.5% sodium deoxycholate, 0.1% sodium dodecyl sulfate, 50 mM Tris, pH 8.0) with 1×Complete Protease Inhibitor (Roche, cat.11697498001). Histones were isolated from cells using the Active Motif Histone Purification Mini Kit (cat.40026, Active Motif, Carlsbad, Calif.). Lysates were resolved on 15% SDS-PAGE gels and transferred to Immobilon(P) PVDF membrane (Milipore, cat.IPVH00010). […] Following incubation, membranes were washed at least three times with TBST and signals were detected using LI-COR Odyssey model 9120 imaging system (LI-COR). […]

In the case of `Cc1cc(C)c(CNC(=O)c2cc(-c3ccc(N4CCN(C)CC4)nc3)cc3c2c(C)cn3C(C)C)c(=O)[nH]1` [GSK503, reference compound], the “FR-induced re-differentiation (morphology)” value ([1]; FIG. 7E) is reported as “blocked the ability of FR to re-differentiate these cells”, the “pigmentation of FR-treated cells” value ([1]; FIG. 7F) is reported as “decreased pigmentation” and the “histone H3 lysine 27 trimethylation (immunoblot)” value [2] is reported as “reduced histone H3 lysine 27 trimethylation”.
